# Test results from US20240189279A1, “IMMUNOMODULATORY COMPOSITIONS AND METHODS OF USE THEREOF” (THE TEXAS A&M UNIVERSITY SYSTEM, priority 2022, published 2024).
# Columns and labels:
# liver proteome = experiment: Liver untargeted proteomics in WD mice; assay type: in vivo, mice (male B6 129SF1/J)
# free fatty acids = experiment: Quantification of free fatty acids in liver and serum of WD mice; assay type: in vivo, mice (male B6 129SF1/J)
# Text: Animal experiments. Male B6 129SF1/J mice at 6 weeks of age were obtained from Jackson Laboratories (Bar Harbor, ME). Mice were acclimatized to the animal facility for one week. At the start of the experiment, mice were randomly divided into four groups (n=10 for each group). Three of the four groups were fed ad libitum a Western diet (WD) with 40% Kcal from fat and containing 0.15% cholesterol (D12079B, Research Diets) and a sugar water (SW) solution (23.1 g/L d-fructose+18.9 g/L d-glucose) as previously described (DIAMOND model (15)). After 8 weeks, the three groups of WD-fed mice were randomly selected for treatment with vehicle (WD group) or low (WD-50 group) or high dose (WD-100 group) of […]. The WD group was fed WD and drank sugar water. The WD-50 and WD-100 groups were fed WD and drank sugar water containing, respectively, 50 or 100 mg […] per kg body weight. […] Quantification of free fatty acids. Serum and liver FFAs were analyzed using targeted LC-MS experiments performed on a quadrupole-time of flight instrument (TripleTOF 5600+, AB Sciex, Framingham, MA) as previously described with minor modifications (Tables 2 and 5). […] Free fatty acids (FFAs) in the liver and serum were quantified using product ion scan experiments (TripleTOF 5600+, AB Sciex, Framingham, MA). […] “Light” experiments with low collision energy were used for quantification. […]
# [1] = I3A levels in fecal material, liver and serum after I3A in drinking water; assay type: in vivo, mice (male B6 129SF1/J); conditions: WD and sugar water containing I3A vs same WD and SW without I3A
# Text: Animal experiments. Male B6 129SF1/J mice at 6 weeks of age were obtained from Jackson Laboratories (Bar Harbor, ME). Mice were acclimatized to the animal facility for one week. At the start of the experiment, mice were randomly divided into four groups (n=10 for each group). Three of the four groups were fed ad libitum a Western diet (WD) with 40% Kcal from fat and containing 0.15% cholesterol (D12079B, Research Diets) and a sugar water (SW) solution (23.1 g/L d-fructose+18.9 g/L d-glucose) as previously described (DIAMOND model (15)). […] The WD group was fed WD and drank sugar water. […] The treatments were continued for another 8 weeks. Water bottles containing SW and I3A or only SW were changed every other day. A fourth group of mice was fed a low-fat control diet (D12450B, Research Diets) and normal water for 16 weeks (CN group) (FIG. 9A). FIG. 9A presents the study design. Mice belonging to the same treatment group were housed together (5 mice/cage). Mice were maintained on 12:12-h light-dark cycles. All procedures were performed in accordance with Texas A&M University Health Sciences Center Institutional Animal Care and Use Committee guidelines under an approved animal use protocol (AUP #2017-0145).
# Sample collection. […] FIG. 9B presents the sampling scheme. All fecal pellets were flash frozen in liquid nitrogen after collection. […]
# AMPK = AMPK Western blot in RAW 264.7 macrophages stimulated with palmitate and LPS; assay type: cell-based, murine; conditions: RAW 264.7, 1 mM I3A pre-treatment
# liver metabolome = experiment: Liver untargeted metabolomics in WD mice; assay type: in vivo, mice (male B6 129SF1/J)
structure (smiles),measurement,setting,value
"O=C([O-])Cc1c[nH]c2ccccc12.[Na+] [I3A, Indole-3-acetate sodium salt]",liver protein abundance profile (PLS-DA),liver proteome; WD-50 group vs WD,not significantly different from the WD group
same,liver protein abundance profile (PLS-DA),"liver proteome; WD-100 group vs WD, p<0.001",significantly different from the WD group
same,"liver total FFA concentration, significance of I3A effect",free fatty acids; I3A treatment vs WD,no significant effect
same,"liver total FFA concentration, reduction","free fatty acids; WD-100 group vs WD, p=0.11",36 % reduction
same,"I3A levels in fecal material, liver and serum",[1],"increased I3A levels in fecal material, the liver and serum"
same,p-AMPK level,AMPK,upregulated p-AMPK to baseline levels
same,total AMPK level,AMPK,without altering total AMPK
same,liver metabolome PLS-DA projection,"liver metabolome; high dose (WD-100) group vs CN and WD, p<0.005 and p<0.0005",only partially overlapped with both CN and the WD group
same,WD-induced changes in 516 significant annotated liver metabolite features (hierarchical clustering),liver metabolome; high dose of I3A,generally reversed these changes
same,liver metabolome PLS-DA projection,"liver metabolome; low dose (WD-50) group vs WD, p=0.26",overlapped completely with the WD group
